Like-named read-outs stand apart in the source and are kept apart here.
Test: Phase 1/2 clinical study: pharmacokinetics in cancer patients
Assay type: in vivo, human
Details: for Cmax / Tmax / concentration at 0 h / concentration at 1 h / concentration at 2 h / concentration at 4 h / concentration at 8 h / concentration at 24 h / half-life: human, plasma, oral; for Cmax: read-out: Cmax Geo mean (% CV); for Tmax: read-out: Tmax Median (min, max); for concentration at 0 h / concentration at 1 h / concentration at 2 h / concentration at 4 h / concentration at 8 h / concentration at 24 h: read-out: Mean patient plasma CONC (SD); for concentration at 24 h: 24 hr (not measured, inferred based on predose)
Description: The study is an open-label, multi-center study of oral BTK-I to evaluate safety and efficacy as monotherapy and as part of combination therapy in patients with CLL/SLL and NHL who have failed or are intolerant to standard of care. This study includes monotherapy as well as combination treatment parts. The monotherapy part includes Phase 1 dose escalation and dose expansion as well as Phase 2. The combination therapy part is a Phase 1b (safety assessment and expansion) of BTK-I in combination with venetoclax, with or without anti-CD20 therapy. Phase 1 dose escalation will proceed prior to start of Phase 1b or Phase 2. Once a recommended Phase 2 dose (RP2D) is identified in Phase 1, enrollment can commence to the Phase 1b combination therapies and Phase 2 monotherapy cohorts.
BTK-I is administered in oral tablet form. Dose escalation will follow a 3+3 design starting with a 25 mg QD dose (followed by 50 mg QD (dose level cohort 2), 100 mg QD (dose level cohort 3), 150 mg QD (dose level cohort 4), 200 mg QD (dose level cohort 5), 250 mg QD (dose level cohort 6), and 300 mg QD (dose level cohort 7)). Cycle length will be 28 days. The drug limiting toxicity (DLT) period will be 28 days, commencing with the first dose of BTK-I.
The pharmacokinetic profiles and adverse events for BTK-I doses are summarized in the below tables.
Pharmacokinetic Parameters of BTK-I—in Cancer Patients at Steady State (Cycle 1 Day 8)

[1] = 50 mg QD, steady state (Cycle 1 Day 8), N=6
[2] = 100 mg QD, steady state (Cycle 1 Day 8), N=9
[3] = 150 mg QD, steady state (Cycle 1 Day 8), N=20
[4] = 200 mg QD, steady state (Cycle 1 Day 8), N=99
[5] = 300 mg QD, steady state (Cycle 1 Day 8), N=17

COc1ccc(F)cc1C(=O)NCc1ccc(-c2nn([C@@H](C)C(F)(F)F)c(N)c2C(N)=O)cc1 [BTK-I, (S)-5-amino-3-(4-((5-fluoro-2-methoxybenzamido)methyl)phenyl)-1-(1,1,1-trifluoropropane-2-yl)-1H-pyrazole-4-carboxamide] gave a Cmax [1] of 1420 ng/mL, a Tmax [1] of 1.5 h and a concentration at 0 h (50 mg) of 571 ng/mL. For the same compound, the concentration at 1 h (50 mg) was 1150 ng/mL, the concentration at 2 h (50 mg) was 1300 ng/mL and the concentration at 4 h (50 mg) was 1170 ng/mL. The concentration at 8 h (50 mg) was 1020 ng/mL, the concentration at 24 h (50 mg) was 571 ng/mL and the half-life (100 mg QD, steady state (Cycle 1 Day 8), N = 8, % CV 33.9%, read-out: T1/2 Geo mean (% CV) (converted)) was 22.2 h. For the same compound, the Cmax [2] was 3910 ng/mL, the Tmax [2] was 2 h and the concentration at 0 h (100 mg) was 1580 ng/mL. It also gave a concentration at 1 h (100 mg) of 2170 ng/mL, a concentration at 2 h (100 mg) of 3670 ng/mL and a concentration at 4 h (100 mg) of 2800 ng/mL. It also gave a concentration at 8 h (100 mg) of 2360 ng/mL, a concentration at 24 h (100 mg) of 1580 ng/mL and a Cmax [3] of 4680 ng/mL. The Tmax [3] was 2 h, the concentration at 0 h (150 mg) was 1800 ng/mL and the concentration at 1 h (150 mg) was 3670 ng/mL. The concentration at 2 h (150 mg) was 4640 ng/mL, the concentration at 4 h (150 mg) was 3660 ng/mL and the concentration at 8 h (150 mg) was 3320 ng/mL. It also gave a concentration at 24 h (150 mg) of 1800 ng/mL, a half-life (200 mg QD, steady state (Cycle 1 Day 8), N = 64, % CV 56.2%, read-out: T1/2 Geo mean (% CV) (converted)) of 19.9 h and a Cmax [4] of 5770 ng/mL. For the same compound, the Tmax [4] was 2 h, the concentration at 0 h (200 mg) was 2770 ng/mL and the concentration at 1 h (200 mg) was 4940 ng/mL. It also gave a concentration at 2 h (200 mg) of 6160 ng/mL, a concentration at 4 h (200 mg) of 5270 ng/mL and a concentration at 8 h (200 mg) of 4660 ng/mL. The concentration at 24 h (200 mg) was 2770 ng/mL, the half-life (250 mg QD, steady state (Cycle 1 Day 8), N = 21, % CV 50.6%, read-out: T1/2 Geo mean (% CV) (converted)) was 17.4 h and the Tmax (250 mg QD, steady state (Cycle 1 Day 8), N=25) was 2 h. For the same compound, the concentration at 0 h (250 mg) was 3160 ng/mL, the concentration at 1 h (250 mg) was 6910 ng/mL and the concentration at 2 h (250 mg) was 7870 ng/mL. It also gave a concentration at 4 h (250 mg) of 6840 ng/mL, a concentration at 8 h (250 mg) of 5500 ng/mL and a concentration at 24 h (250 mg) of 3160 ng/mL. It also gave a half-life (300 mg QD, steady state (Cycle 1 Day 8), N = 16, % CV 102%, read-out: T1/2 Geo mean (% CV) (converted)) of 30.1 h, a Cmax [5] of 10700 ng/mL and a Tmax [5] of 2 h. The concentration at 0 h (300 mg) was 5510 ng/mL, the concentration at 1 h (300 mg) was 9730 ng/mL and the concentration at 2 h (300 mg) was 10700 ng/mL. The concentration at 4 h (300 mg) was 8420 ng/mL, the concentration at 8 h (300 mg) was 7510 ng/mL and the concentration at 24 h (300 mg) was 5510 ng/mL. For the same compound, the half-life (patients, read-out: observed half-life (converted)) was roughly 20 h and the “target coverage for wild-type and C481S-mutated BTK” value (starting at the 50 mg QD dose, estimates from cell-based potencies) was “delivered >IC90 target coverage”.

— patent US12551463B2, “Dosing of a Bruton's tyrosine kinase inhibitor” (Loxo Oncology, Inc., priority 2019, dated 2026)
